Test system: VGF knockout mice
Assay: Biological activity of VGF polypeptide in knockout mice (body weight)
Format: in vivo
Conditions: VGF gene knockout mice; intraperitoneal injection of 2 mg twice daily for five days; three of the four treated mice
Procedure: The biological activity of VGF polypeptides in knockout mice was analyzed using VGF polypeptides synthesized by the Amgen Boulder Peptide Technology group using standard peptide synthesis protocols. Following peptide synthesis, VGF polypeptides from different batches were pooled and lyophilized. The peptide content for each VGF polypeptide was determined by hydrolysis with HCl.
VGF gene knockout mice were obtained from Steve Salton of Mt. Sinai School of Medicine, New York, N.Y. Prior to administration of VGF polypeptide, knockout mice were housed under LD 12:12 conditions (i.e., 12 hours of light and 12 hours of dark). Twenty-four hours before VGF polypeptide injection, knockout mice were individually caged and moved to a temporary housing room where the mice were kept for the remainder of the experiment under LD 12:12 conditions.
VGF polypeptide was administered to knockout mice twice daily (at 9:00 a.m. and 6:00 p.m.) by intraperitoneal injection of 2 mg of VGF-1a (SEQ ID NO: 2; Table I). Prior to injection, VGF-1a polypeptide was diluted to 16% in aCSF Solution Buffer (126.6 mM NaCl, 2.6 mM KCl, 2.0 mM MgCl2 and 1.4 mM CaCl2, 10 mM NaPO4, pH 7.4). Knockout mice were administered VGF-1a polypeptide for five days and the body weight of each mouse was measured daily. The body weight of treated mice was measured daily for three days following the withdrawal of VGF-1a polypeptide.

Substance: VGF-1a: VGF polypeptide, amino acid sequence AQEEADAEE (listed as Rattus norvegicus)
- gain in body weight: 10–15%
